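Five concentrations, 48 hours, 96-well plates. Here, GI50 denotes the concentration required for 50% inhibition of growth. The concentration for full growth arrest is given as TGI.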
How the values were obtained:
Test in all cases: NCI anticancer screen, dose series, 48 h
OVCAR-3 ovarian = system: OVCAR-3 ovarian
EKVX NSCLC = system: EKVX NSCLC
UO-31 renal = system: UO-31 renal
T-47D breast = system: T-47D breast
KM12 colon = system: KM12 colon
HS 578T breast = system: HS 578T breast
CAKI-1 renal = system: CAKI-1 renal
NCI-H23 lung = system: NCI-H23 lung
OVCAR-5 ovarian = system: OVCAR-5 ovarian
HT29 colon = system: HT29 colon

SMILES	GI50 (OVCAR-3 ovarian) [µM]	TGI (OVCAR-3 ovarian) [µM]	GI50 (EKVX NSCLC) [µM]	TGI (EKVX NSCLC) [µM]	GI50 (UO-31 renal) [µM]	TGI (UO-31 renal) [µM]	GI50 (T-47D breast) [µM]	TGI (T-47D breast) [µM]	GI50 (KM12 colon) [µM]	TGI (KM12 colon) [µM]	GI50 (HS 578T breast) [µM]	TGI (HS 578T breast) [µM]	GI50 (CAKI-1 renal) [µM]	TGI (CAKI-1 renal) [µM]	GI50 (NCI-H23 lung) [µM]	TGI (NCI-H23 lung) [µM]	GI50 (OVCAR-5 ovarian) [µM]	TGI (OVCAR-5 ovarian) [µM]	GI50 (HT29 colon) [µM]	TGI (HT29 colon) [µM]
CCCc1cc2c(=O)c(C(=O)OC)c[nH]c2cc1N(CC)CC	16.4	38.3	16.9	42.7	28.5	> 100	53	> 100	45.5	> 100	19.6	48.1	11.7	29.1	44.5	> 100	> 100	> 100	72.1	> 100
NC(N)=N/N=C\c1cccc(OCc2ccccc2)c1	6.51	23	11	25.4	7.35	27.9	1.55	3.99	2.41	8.33	9.12	28.7	7.5	22.2	11.7	27.6	11.5	33.7	1.83	4.01
O=C(Nc1cc(Cl)cc(Cl)c1)c1ccc(NC2=C(Cl)C(=O)N(Cc3ccc(Cl)cc3Cl)C2=O)cc1	26.8	70.2	21.2	71.4	1.7	3.25	3.12	73.9	13.6	47.7	8.12	54.7	36.8	> 100	3.71	19.2	> 100	> 100	49.3	> 100
COc1ccc(-n2nnnc2-c2c[nH]c3c(F)cc(F)cc23)cc1	> 100	> 100	> 100	> 100	54	> 100	> 100	> 100	> 100	> 100	> 100	> 100	> 100	> 100	> 100	> 100	> 100	> 100	> 100	> 100
COC(=O)c1c2c(c(C)[n+]([O-])c1C)C(=O)C=C(NCc1ccc(F)c(Cl)c1)C2=O	0.201	0.628	0.592	2.27	1.05	2.37	0.0638	1.35	0.0515	1.58	1.62	6.48	0.0559	1.9	0.412	2.11	1.16	2.69	0.243	2.15
COc1ccc(/C=C/C(=O)c2ccc(SC)cc2)cc1OC	2.12	6.47	19.1	35.9	13.3	30.2	37.2	> 100	3.9	22.6	16.6	99.3	7.5	25.6	2.82	10.4	16.4	31.7	4.57	87.5
COc1cc2c3c(n(CCCN)c(=O)c2cc1OC)-c1cc2c(cc1/C3=C\CCN)OCO2		> 23.5	5.07	15.9	13.5	45.7	19.4	> 100	2.6	> 21.8	11	55.7	23.6	> 100	5.35	24.1	4.29	> 26.1	0.373	10.6
N[C@@H]1CCCC[C@H]1N.O=C([O-])C(=O)[O-].[Pt+4]	5.71	25.9	88.7	> 100	8.47	43.6	2.21	> 100	10.9	> 100	> 100	> 100	0.765	39.3	1.76	15.2	0.671	21.2	0.175	> 8.25
COc1c(OC)c(OC)c2c(c1OC)c(=O)c1ccccc1n2C		> 100		> 100		> 100		> 100		> 100		> 100		> 100		> 100		> 100		> 100
